Data published in PubChem BioAssay (NCI).
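Each compound was tested at five concentrations against cells in 96-well plates for 48 hours. At the GI50, growth is halved. Definition used: TGI = concentration required for complete inhibition of growth.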

Assays:
Assay in all cases: inhibition of tumour cell growth, NCI panel, 48 h
HCT-116 colon = tested on: HCT-116 colon
M19-MEL melanoma = tested on: M19-MEL melanoma
SR leukemia = tested on: SR leukemia
HOP-62 NSCLC = tested on: HOP-62 NSCLC
XF 498 CNS = tested on: XF 498 CNS
SNB-78 CNS = tested on: SNB-78 CNS
HT29 colon = tested on: HT29 colon
DMS 273 small cell lung = tested on: DMS 273 small cell lung
HCC-2998 colon = tested on: HCC-2998 colon
M14 melanoma = tested on: M14 melanoma

Row | Compound | TGI (HCT-116 colon) [µM] | TGI (M19-MEL melanoma) [µM] | TGI (SR leukemia) [µM] | TGI (HOP-62 NSCLC) [µM] | TGI (XF 498 CNS) [µM] | TGI (SNB-78 CNS) [µM] | TGI (HT29 colon) [µM] | TGI (DMS 273 small cell lung) [µM] | TGI (HCC-2998 colon) [µM] | TGI (M14 melanoma) [µM] | GI50 (HCT-116 colon) [µM] | GI50 (M19-MEL melanoma) [µM] | GI50 (SR leukemia) [µM] | GI50 (HOP-62 NSCLC) [µM] | GI50 (XF 498 CNS) [µM] | GI50 (SNB-78 CNS) [µM] | GI50 (HT29 colon) [µM] | GI50 (DMS 273 small cell lung) [µM] | GI50 (HCC-2998 colon) [µM] | GI50 (M14 melanoma) [µM]
1 | COC(=O)c1ccc(N=NN(C)CO)cc1 | > 100 | > 100 | > 100 | > 100 | 9.97 | > 100 | > 100 | > 100 | > 100 | > 100 |  |  |  |  |  |  |  |  |  | 
2 | CC1=Cc2cc3[n-]c(cc4nc(cc5[n-]c(cc1n2)cc5C)C(C)=C4CCC(=O)O)c(CCC(=O)O)c3C.[Pd+2] | 41.4 | 20.5 | 9.75 | 34.3 | 31.5 | 28.7 | 36.3 | 32.7 | 28.8 | 31.1 | 24.1 | 3.64 | 2.82 | 17.7 | 14.2 | 6.17 | 14.8 | 12 | 10.2 | 12.7
3 | O=S1(=O)C[C@@H](O)[C@H](O)CS1 | > 100 | > 100 | > 100 | > 100 | > 100 | > 100 | > 100 | > 100 | > 100 | > 100 |  |  |  |  |  |  |  |  |  | 
4 | O=C1C(=O)N(c2ccc(Cl)c(Cl)c2)C(=O)C(=O)C1c1nc2ccccc2o1 | > 100 | > 100 | 86 | > 100 | > 100 | > 100 | > 100 | > 100 | > 100 | > 100 |  |  |  |  |  |  |  |  |  | 
